# Results as given in patent publication US20250360167A1 (Keryx Biopharmaceuticals, Inc., priority 2013, published 2025).
# Assay: BET active surface area
# Assay type: physicochemical
# Text: BET theory explains the physical adsorption of gas molecules onto a solid surface. The theory serves as the basis for the measurement of the specific surface area of a material. This theory allows the calculation of surface areas of materials in a very accurate manner and is thus capable of distinguishing differences between separate preparations of what would otherwise appear to be the same material. For example, activated carbon is a form of carbon that has been processed to make it extremely porous and thus to have a very large surface area. Activated carbon has been experimentally determined, using calculations derived from BET theory, to have a surface area of around 3000 m^2 g^−1.
# [1] = Table 1, one value given per pair of samples
structure (smiles),measurement,setting,value
O=C([O-])CC(O)(CC(=O)[O-])C(=O)[O-].[Fe+3] [RFS-12-1],BET Active Surface Area,[1],0.61
same,BET Active Surface Area,Tables 2 and 3,0.61 m^2/g
O=C([O-])CC(O)(CC(=O)[O-])C(=O)[O-].[Fe+3] [STM-182-1],BET Active Surface Area,[1],19.85
